According to patent US20040152708A1, “Trans-9,10-dehydroepothilone C and D, analogs thereof and methods of making the same” (priority 2002, published 2004):
Where two headings read alike, the source gives them in different places.

How the values were obtained:
[1] = Half-life in mouse plasma
Procedure: […] At Time Zero, aliquotted 75 μl from each sample and added 150 μl of acetonitrile. Centrifuged the white precipitate at 13500 rpm for 3 minutes. Transferred all the clear supernatant into another microcentrifuge tube and repeated the centrifuging step (13500 rpm/3 min). Carefully pipetted 150 μl of the clear supernatant into labeled HPLC sample tubes and tried to avoid pipetting any protein pellets. The samples were analyzed by HPLC to measure remaining compound at each time point by comparison with authentic standards.

[2] = test system: Human non-small cell lung cancer cell line A549; experiment: SRB cytotoxicity assay, A549; type: cell-based
Procedure: (§1) Compounds of the invention may be screened for cytotoxicity using conventional assays well known to those skilled in the art. For example, cytotoxicity of the compounds may be determined by the SRB assay as disclosed in Skehan et al., J. Natl. Cancer Inst. 82:1107-1112 (1990), which is incorporated herein by reference. In the SRB assay, the following cultured cells are trypsinized, counted and diluted to the following concentrations per 100 μl with growth medium: MCF-7, 5000; NCI/ADR-Res, 7500; NCI-H460, 5000; A549, 5000; Skov3, 7500; and SF-268, 7500. The cells are seeded at 100 μl/well in 96-well microtiter plates. Twenty-four hours later, 100 μl of a test epothilone compound of the invention (ranging in concentration from 1000 nM to 0.001 nM diluted in growth medium) is added to each well. After incubation, with the compound for a period of days, the cells are fixed with 100 μl of 10% trichloroacetic acid (“TCA”) at 4 degrees for 1 hour, and stained with 0.2% sulforhodamine B (SRB)/1% acetic acid, and the bound SRB is then extracted with 200 μl of 10 mM Tris base. The amount of bound dye is determined by OD 515 nm, which correlates to the total cellular protein contents. The data is analyzed using standard statistical methodologies (such as those available with the software sold as KALEIDA GRAPH® by Synergy Software of Reading, Pa.) and the IC50s are calculated.
(§2) Human breast carcinoma cell line MCF-7, multi-drug resistant breast carcinoma cell line NCI/ADR, were obtained from the National Cancer Institute. Human non-small cell lung cancer cell line A549 and human ovarian cancer cell line SKOV-3 were obtained from American Type Culture Collection (Manassas, Va.). All cell lines were maintained in RPMI-1640 medium (Gibco/BRL, Rockville, Md.) supplemented with 2 mM L-glutamine, 25 mM HEPES and 10% FBS (Hyclone, Logan, Utah). Cells were maintained in a humidified incubator at 37° C. in 5% CO2.
(§3) Tumor cells were seeded in 100 μl at 5000 (MCF-7), 7500 (NCI/ADR), 5000 (A549) and 7500 (SKOV3) cells per well in 96-well plates. Cells were allowed to adhere for 24 hours. Each compound ranging from 0.001 to 1000 nM in 100 μl was added to cells in duplicate wells. After 3 days, cells were fixed at 4° C. for 1 hour with 10% trichloroacetic acid and then stained with 0.2% sulforhodamine B (SRB)/1% acetic acid for 20 minutes at room temperature. The unbound dye was rinsed away with 1% acetic acid, and the bounded SRB was then extracted with 200 μl of 10 mM Tris base. The absorbance was measured at 515 nm using a 96-well microtiter plate reader (Spectra Max 250, Molecular Devices). The IC50 values were calculated using a KaleidaGraph program. The experiments were performed twice.

[3] = Plasma protein binding (ultrafiltration); type: in vitro ADME; conditions: mouse or human plasma (species not given), 37° C.
Procedure: Plasma protein binding studies were performed as follows. Compounds were dissolved in DMSO, then diluted into either fresh or thawed samples of mouse or human plasma and incubated at 37° C. Time points of 50 μL were mixed with 100 μl of acetonitrile and centrifuged at ˜14000 rpm for 3 minutes. A 100 μL aliquot was removed from the supernatant and set aside for analysis to indicate compound in the total fraction. The remaining supernatant was transferred onto a Microcon ultrafiltration device fitted with a YM10 membrane and centrifuged to separate protein-bound material. A 50 μL aliquot of the protein-free filtrate was mixed with 100 μL of acetonitrile, centrifuged at ˜14000 rpm for 3 minutes, then 100 μL of the supernatant was collected and analyzed to determine the amount of compound not protein bound. The amount of compound in the total sample and in the protein-free fraction were determined by HPLC analysis against authentic standards.

[4] = molecular target: T1, CYP2C19 (Homo sapiens, UniProt P33261); experiment: Cytochrome P450 inhibition, CYP2C19; type: in vitro ADME; conditions: human
T1 construct: purchased BD GenTest, Woburn, Mass

[5] = molecular target: T2, CYP2C9 (Homo sapiens, UniProt P11712); experiment: Cytochrome P450 inhibition, CYP2C9; type: in vitro ADME; conditions: human
T2 construct: purchased BD GenTest, Woburn, Mass

[6] = test system: multi-drug resistant breast carcinoma cell line NCI/ADR; experiment: SRB cytotoxicity assay, NCI/ADR; type: cell-based, human
Procedure: as §1, §2, §3

[7] = molecular target: T3, CYP3A4 (Homo sapiens, UniProt P08684); experiment: Cytochrome P450 inhibition (BD GenTest kit, BFC substrate), CYP3A4; type: in vitro ADME
T3 construct: purchased BD GenTest, Woburn, Mass
From the text: Following the procedure of Examples 39 (when R=methyl) and 42 (when R=CF3), the additional compounds shown in Table 2 were made by replacing (2-(tert-butyldimethyl-silyloxy)-methylthiazol-4-yl)methyltri-n-butyl-phosphonium chloride with the corresponding phosphonium chloride. Cytotoxicity data (Table 2) was obtained as described in Example 48. Cytochrome P450 inhibition data (Table 3) was obtained using the initial rate method against BFC substrate.
Cytochrome P450 inhibition measurements were performed using a commercially-available kit (BD GenTest, Woburn, Mass.), using BFC as substrate against CYP3A4.

[8] = Compound solubility in phosphate-buffered saline; type: physicochemical; conditions: aqueous buffer, kinetic from dmso stock; 5 μL of 20 mg/mL DMSO stock in 95 μL phosphate-buffered saline, 0.45 micron filter, HPLC
Procedure: Compound solubility was determined as follows: 5 μL of stock solution (at 20 mg/mL in DMSO) was added to 95 μL of phosphate-buffered saline. After being vortexed for about 10 seconds, the solution/suspension was filtered through a 0.45 micron filter and the amount of analyte was quantitated by HPLC. Solubilities (mg/mL) determined were as follows: epothilone D, <0.06; trans-9,10-dehydroepothilone D, <0.06; 21-OH-26-F3-trans-9,10-dehydroepothilone D, 0.1; 21-amino-trans-9,10-dehydroepothilone D, >0.6; 21-amino-26-F3-trans-9,10-dehydroepothilone D, >0.6; 26-F3-trans-9,10-dehydroepothilone D, <0.06; 21-OH-trans-9,10-dehydroepothilone D, 0.1; KOSN 1635, <0.02; KOSN 1632, 0.12.

[9] = Half-life in human plasma; conditions: fresh human plasma
Procedure: Half-lives of compounds in fresh mouse and human plasma were determined by dissolving the compounds in DMSO and adding aliquots to samples of mouse or human plasma. At Time Zero, aliquotted 75 μl from each sample and added 150 μl of acetonitrile. Centrifuged the white precipitate at 13500 rpm for 3 minutes. Transferred all the clear supernatant into another microcentrifuge tube and repeated the centrifuging step (13500 rpm/3 min). Carefully pipetted 150 μl of the clear supernatant into labeled HPLC sample tubes and tried to avoid pipetting any protein pellets. The samples were analyzed by HPLC to measure remaining compound at each time point by comparison with authentic standards.

[10] = test system: human ovarian cancer cell line SKOV-3; experiment: SRB cytotoxicity assay, SKOV3; type: cell-based
Procedure: as §1, §2, §3

[11] = test system: Human breast carcinoma cell line MCF-7; experiment: SRB cytotoxicity assay, MCF-7; type: cell-based
Procedure: as §1, §2, §3

[12] = Homo sapiens, A549, 72 h, Table 1, 3 days, SRB, read-out: IC50 A549
[13] = Homo sapiens, NCI/ADR-RES, 72 h, Table 1, 3 days, SRB, read-out: IC50 NCI/ADR
[14] = Homo sapiens, SK-OV-3, 72 h, Table 1, 3 days, SRB, read-out: IC50 SKOV3
[15] = Homo sapiens, MCF7, 72 h, Table 1, 3 days, SRB, read-out: IC50 MCF-7

T2 sequence (P11712 whole entry): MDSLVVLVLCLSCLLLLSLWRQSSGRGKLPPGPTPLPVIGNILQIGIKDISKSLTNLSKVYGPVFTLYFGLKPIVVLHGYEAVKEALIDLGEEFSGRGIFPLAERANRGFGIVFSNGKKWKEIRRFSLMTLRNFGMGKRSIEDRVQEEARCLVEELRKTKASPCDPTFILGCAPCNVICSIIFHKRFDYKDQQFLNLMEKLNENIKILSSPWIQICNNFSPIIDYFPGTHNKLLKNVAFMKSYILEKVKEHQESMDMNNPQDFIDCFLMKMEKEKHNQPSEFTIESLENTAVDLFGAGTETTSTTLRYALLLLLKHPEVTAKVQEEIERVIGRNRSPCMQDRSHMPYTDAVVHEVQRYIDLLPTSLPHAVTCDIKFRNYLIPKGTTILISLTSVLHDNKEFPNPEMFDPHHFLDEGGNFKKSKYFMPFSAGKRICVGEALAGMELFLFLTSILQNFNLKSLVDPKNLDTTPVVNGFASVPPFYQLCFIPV
T3 sequence (P08684 whole entry): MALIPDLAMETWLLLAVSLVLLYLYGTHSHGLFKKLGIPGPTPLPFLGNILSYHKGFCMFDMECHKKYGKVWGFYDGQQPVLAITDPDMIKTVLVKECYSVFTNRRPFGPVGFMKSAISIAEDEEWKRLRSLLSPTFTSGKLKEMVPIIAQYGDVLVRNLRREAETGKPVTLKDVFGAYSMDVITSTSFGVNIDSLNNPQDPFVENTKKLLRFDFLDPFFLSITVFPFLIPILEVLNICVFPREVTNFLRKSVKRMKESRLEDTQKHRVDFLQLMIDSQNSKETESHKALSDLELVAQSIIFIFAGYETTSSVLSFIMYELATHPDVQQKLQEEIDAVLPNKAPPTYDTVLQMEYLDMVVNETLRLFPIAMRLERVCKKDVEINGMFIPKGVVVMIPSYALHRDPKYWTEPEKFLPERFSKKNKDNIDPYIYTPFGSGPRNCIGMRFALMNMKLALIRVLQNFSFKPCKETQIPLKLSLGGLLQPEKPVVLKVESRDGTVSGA
T1 sequence (P33261 whole entry): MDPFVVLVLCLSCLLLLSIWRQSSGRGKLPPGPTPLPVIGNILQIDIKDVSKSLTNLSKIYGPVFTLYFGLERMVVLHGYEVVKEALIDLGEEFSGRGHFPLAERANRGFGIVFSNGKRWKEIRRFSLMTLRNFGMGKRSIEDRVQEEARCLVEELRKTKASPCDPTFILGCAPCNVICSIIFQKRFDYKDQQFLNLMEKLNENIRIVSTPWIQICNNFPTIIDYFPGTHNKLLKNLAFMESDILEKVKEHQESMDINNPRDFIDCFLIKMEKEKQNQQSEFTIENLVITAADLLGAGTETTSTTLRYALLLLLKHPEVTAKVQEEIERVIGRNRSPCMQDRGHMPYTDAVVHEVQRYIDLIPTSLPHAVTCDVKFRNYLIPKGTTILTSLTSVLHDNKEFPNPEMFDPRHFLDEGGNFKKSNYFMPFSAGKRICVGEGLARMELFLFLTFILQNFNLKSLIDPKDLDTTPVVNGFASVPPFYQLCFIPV

Compound | half-life ([1]; frozen mouse plasma) | IC50 [2, 12] | percentage of compound protein bound [3] | IC50 [4] | IC50 [5] | IC50 [6, 13] | IC50 [7] | solubility [8] | half-life [9] | IC50 [10, 14] | IC50 [11, 15] | half-life ([1]; fresh mouse plasma) | IC50 ([2]; Table 2, as described in Example 48, read-out: IC50 (nM) A549) | IC50 ([6]; Table 2, as described in Example 48, read-out: IC50 (nM) NCI/ADR) | IC50 ([10]; Table 2, as described in Example 48, read-out: IC50 (nM) Skov) | IC50 ([11]; Table 2, as described in Example 48, read-out: IC50 (nM) MCF-7)
C/C1=C/C[C@@H](/C(C)=C/c2csc(C)n2)OC(=O)C[C@H](O)C(C)(C)C(=O)[C@H](C)[C@@H](O)[C@@H](C)/C=C/C1 (relative stereo) [9,10-dehydroepothilone D, trans-9,10-dehydroepothilone D] | 0.783 h | 4.7 nM | 96.6% | 2000 nM | 10800 nM | 6.2 nM | 1600 nM | < 60 µg/mL | > 24 h | 6.2 nM | 2 nM | – | – | – | – | –
C/C(=C\c1csc(C)n1)[C@@H]1C/C=C(/C(F)(F)F)C/C=C/[C@H](C)[C@H](O)[C@@H](C)C(=O)C(C)(C)[C@@H](O)CC(=O)O1 (relative stereo) [26-trifluoro 9,10-dehydroepothilone D, 26-trifluoro-trans-9,10-dehydroepothilone D, reference compound] | – | 11 nM | 96.5% | 3200 nM | 14400 nM | 33 nM | 2000 nM | < 60 µg/mL | > 24 h | 22 nM | 5.3 nM | 2.72 h | – | – | – | –
C/C1=C/C[C@@H](/C(C)=C/c2ccc3ccccc3n2)OC(=O)C[C@H](O)C(C)(C)C(=O)[C@H](C)[C@@H](O)[C@@H](C)/C=C/C1 [17-des(2-methyl-4-thiazolyl)-17-(2-quinolyl)-9,10-dehydropeothilone D] | – | 25 nM | – | – | – | 24 nM | – | – | – | 19 nM | 8.9 nM | – | – | – | – | –
C/C1=C/C[C@@H](/C(C)=C/c2csc(CN)n2)OC(=O)C[C@H](O)C(C)(C)C(=O)[C@H](C)[C@@H](O)[C@@H](C)/C=C/C1 [21-NH2 9,10-dehydroepothilone D, 21-amino-9,10-dehydro-epothilone D] | – | 5.9 nM | 89.5% | 630 nM | 830 nM | 25 nM | 610 nM | > 600 µg/mL | > 24 h | 5.7 nM | 3.2 nM | 0.983 h | – | – | – | –
C/C(=C\c1csc(CN)n1)[C@@H]1C/C=C(/C(F)(F)F)C/C=C/[C@H](C)[C@H](O)[C@@H](C)C(=O)C(C)(C)[C@@H](O)CC(=O)O1 [21-amino-9,10-dehydro-26-trifluoroepothilone D] | – | 35 nM | – | – | – | 330 nM | – | > 600 µg/mL | – | 40 nM | 9.7 nM | – | – | – | – | –
C/C1=C/C[C@@H](/C(C)=C/n2nnc3ccccc32)OC(=O)C[C@H](O)C(C)(C)C(=O)[C@H](C)[C@@H](O)[C@@H](C)/C=C/C1 [KOSN-1674] | – | – | – | – | – | – | – | – | – | – | – | – | 42 nM | 180 nM | 50 nM | 34 nM
